Experiment [1] deals with FGF14^Y158N/V160N:Nav1.6 complex. The experiment can be described thus: LCA, CLuc-FGF14^Y158N/V160N. Type of experiment: cell-based, human. To be noted: 50 µM peptide, 12 hr, HEK293, vs DMSO.
A further experiment addresses T1, Nav1.6 C-terminal tail (Homo sapiens, UniProt Q9UQD0).
T1 construct: aa 1756–1939); 6X His (N); made in house; host or cells: E. coli BL21 (DE3) pLys
As to the kind of experiment: SPR binding to Nav1.6 C-terminal tail. The settings on record: for koff, dissociation rate constant / kon, association rate constant: CM5, 25°C, 1–100 µM, RU 12,000, N.M. = not measurable; for binding to Nav1.6 C-terminal tail: peptide 1–100 µM. An excerpt:
Plasmids used in this study derived from the following clones: human FGF14‐1b isoform (accession number: NM_175929.2) and human Nav1.6 (accession number: NM_014191.3). The CLuc‐FGF14, CD4‐Nav1.6‐NLuc, constructs and the pcDNA3.1 vector (Invitrogen, Carlsbad, CA) were engineered and characterized as previously described (Goetz et al., 2009; Shavkunov et al., 2012,2013,2015; Ali et al., 2016, 2018; Wadsworth et al., 2019). The plasmid pGL3 expressing full length Firefly (Photinus pyralis) luciferase was a gift from Dr. P. Sarkar (Department of Neurology, UTMB). For protein purification studies, cDNAs encoding FGF14‐1b (accession number NP_787125; aa 64–252) or the C‐terminal tail of Nav1.6 (accession number #NP_001171455; aa 1756–1939) were subcloned into suitable pET bacterial expression vectors (pET28a‐FGF14; pET30a‐Nav1.6) with a 6X His‐tag at the N‐terminal site; these plasmids were a gift of Dr. Moosa Mohammadi (NYU, Langone Medical Center). The mutation coding for FGF14^V160A was generated by site‐directed mutagenesis and PCR using FGF14‐1b as a template described previously (Ali et al., 2016). For electrophysiological studies FGF14‐GFP (human) and FGF14‐ΔNT‐GFP (human) were cloned into the GFP plasmid (pQBI‐fC2; Quantum Biotechnology Inc., Montreal, Canada) as previously described.
Upon transformation with corresponding cDNA clones, the recombinant proteins FGF14, FGF14^V160A and Nav1.6 C‐terminal tail were expressed in E. coli BL21 (DE3) pLys (Invitrogen) after induction with 0.1 mM isopropyl thio‐β‐D‐galacto‐pyranoside (IPTG) for 24 hr at 16°C. After induction with IPTG, bacterial cells were harvested and lysed by sonication at 4°C in lysis/binding buffer containing following components (mM): sodium phosphate 10 (prepared from 0.5 M of Na2HPO4 and NaH2PO4) + 3‐cholamidopropyl dimethylammonio 1‐propanesulfonate 0.1% pH 7.0 (for FGF14 proteins) + HEPES 25 + NaCl 150 + glycerol 10% (Nav1.6) pH 7.5 and containing 0.1 mM phenyl methyl sulphonyl fluoride (PMSF). The respective proteins were centrifuged at 18,000 g for 30 min at 4°C. For purification of FGF14 and FGF14^V160A, the supernatant was applied to preequilibrated heparin and the proteins were then eluted with NaCl 0.2–2.0 M in the elution (sodium phosphate 10 mM + NaCl 0.2–2.0 M pH 7.0) buffer. For purification of the Nav1.6 C‐tail, the supernatant was applied first to Ni^2+ NTA column and eluted with imidazole (200 mM). The Nav1.6 C‐tail was further purified using HiTrap QFF‐sepharose column (GE Healthcare Bio‐Sciences, Pittsburgh, PA) with a buffer containing Tris‐HCl 50 mM and eluted with NaCl (10–500 mM) at pH 7.5. Finally, all concentrated proteins were purified on an AKTA FPLC purifier using Superdex 200 Hiload 16 × 60 columns (GE Healthcare Bio‐Sciences) and equilibrated in Tris‐HCl 50 mM + NaCl 150 mM, pH 7.5 (Ali et al., 2016; Scala et al., 2018).
SPR experiments were performed on a Biacore T100 (GE Healthcare Bio‐Sciences, Pittsburgh, PA), and the interaction of FGF14 and Nav1.6 channel toward FLPK, PLEV and EYYV (1–100 µM) were studied at 25°C. To analyze the effects of FLPK, PLEV and EYYV on FGF14^WT (RU 16,000), FGF14^V160A (RU 18,000) and Nav1.6 C‐tail (RU 12,000), the proteins were immobilized on CM5 sensor chip using Acetate 5.5 with Amine Coupling Kit (Biacore GE Healthcare Bio‐Sciences). No protein was coupled to the control flow channel of the chip. Using a flow rate of 50 µl/min, FLPK, PLEV and EYYV (1–100 µM) diluted in HBS‐P^+ buffer were injected over the chip for 180 s, followed by injection of HBS‐P+ for 180 s to monitor dissociation, and finally the chip surface was regenerated with NaCl (200 mM). For each peptide injection, nonspecific responses (buffer only) were subtracted from experimental sensograms/traces prior to data analysis. Maximal equilibrium responses were plotted against peptide concentrations and association rate constant (kon), dissociation rate constatnt (koff) were determined. […]
In general terms: SPR reads the build-up and loss of mass on a sensor chip optically.

Entries after “also recorded” stand apart in the source; their conditions may differ. Peptide text beside a SMILES is read from it.

T1 sequence (Q9UQD0 1797-1980): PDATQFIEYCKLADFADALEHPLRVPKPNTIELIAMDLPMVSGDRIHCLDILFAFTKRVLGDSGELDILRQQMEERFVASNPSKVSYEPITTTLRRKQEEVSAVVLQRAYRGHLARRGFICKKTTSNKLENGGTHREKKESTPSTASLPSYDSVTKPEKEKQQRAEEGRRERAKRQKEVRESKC

As to `CC(=O)N[C@@H](Cc1ccccc1)C(=O)N[C@@H](CC(C)C)C(=O)N1CCC[C@H]1C(=O)N[C@@H](CCCCN)C(N)=O` [FLPK] (Ac-FLPK-NH2), in experiment [1], the “effect on FGF14^Y158N/V160N:Nav1.6 complex formation” value is recorded as “abolished the effect of FLPK; also recorded: similarly abolished”. In addition, on Nav1.6 C-terminal tail, the “koff, dissociation rate constant” value is recorded as “N.M”; the “kon, association rate constant” value is recorded as “N.M”; the “binding to Nav1.6 C-terminal tail” value was “no measurable binding”.

Turning to “EYYV [tetrapeptide previously designed from FGF14:FGF14 dimer interface; docked with N-terminal acetylation and C-terminal amidation]”, at Nav1.6 C-terminal tail, the “koff, dissociation rate constant” value is “N.M”; the “kon, association rate constant” value is “N.M”; the “binding to Nav1.6 C-terminal tail” value is listed as “no appreciable affinity to either protein was detected”.

Take “PLEV [tetrapeptide previously designed from FGF14:FGF14 dimer interface; docked with N-terminal acetylation and C-terminal amidation]”: in experiment [1], the “effect on FGF14^Y158N/V160N:Nav1.6 complex formation” value is reported as “increased the inhibition”. Besides, on Nav1.6 C-terminal tail, the “koff, dissociation rate constant” value is “N.M”; the “kon, association rate constant” value was “N.M”; the “binding to Nav1.6 C-terminal tail” value was “no appreciable affinity to either protein was detected”.

(Values after PMC7363588, “Mapping of the FGF14:Nav1.6 complex interface reveals FLPK as a functionally active peptide modulating excitability” (Physiological Reports, 2020).)
